This test deals with Sodium/potassium/calcium exchanger 2 (Homo sapiens, UniProt Q9UI40). The experiment in a line: Substrate uptake by the Sodium/Potassium/Calcium Exchanger 2 (NCKX2, SLC24A2) as assessed by Screen Questtrade mark Fluo-8 NW calcium assay kit in HEK-293 JumpIN-SLC24A2 cells (PubChem AID: 1794815). Type of test: functional, cell-based, HEK293.
Sequence of Sodium/potassium/calcium exchanger 2 (Q9UI40 whole entry): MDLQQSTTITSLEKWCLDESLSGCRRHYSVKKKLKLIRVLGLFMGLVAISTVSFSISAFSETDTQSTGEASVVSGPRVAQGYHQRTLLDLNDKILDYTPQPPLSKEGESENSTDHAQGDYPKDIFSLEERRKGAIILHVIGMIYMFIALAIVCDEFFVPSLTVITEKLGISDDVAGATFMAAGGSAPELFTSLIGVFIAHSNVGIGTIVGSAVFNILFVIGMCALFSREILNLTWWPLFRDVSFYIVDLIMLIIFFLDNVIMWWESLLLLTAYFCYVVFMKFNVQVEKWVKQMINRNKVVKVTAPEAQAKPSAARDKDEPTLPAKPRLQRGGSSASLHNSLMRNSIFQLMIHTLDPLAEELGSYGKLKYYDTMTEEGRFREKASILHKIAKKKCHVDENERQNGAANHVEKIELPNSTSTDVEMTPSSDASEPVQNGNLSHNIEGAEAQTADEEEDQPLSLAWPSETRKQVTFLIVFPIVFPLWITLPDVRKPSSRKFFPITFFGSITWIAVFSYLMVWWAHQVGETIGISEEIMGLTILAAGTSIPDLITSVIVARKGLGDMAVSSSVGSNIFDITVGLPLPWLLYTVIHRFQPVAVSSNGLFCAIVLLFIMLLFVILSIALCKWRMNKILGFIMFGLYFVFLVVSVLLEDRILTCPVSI

Turning to `[Cl-].[K+]` [POTASSIUM CHLORIDE], the concentration for a half-maximal effect (EC50) stood at 280 mM.

(Values after ChEMBL document CHEMBL5209573, “Fluo-8 based assay for SLC24A2 using HEK293 SLC24A2 JumpIn OE cells” (2022).)
